Key:
[1] = target: T1, heparanase (Homo sapiens, UniProt Q9Y251); assay: Fluorescence recovery of nanoparticles treated with heparanase or heparanase+inhibitor; assay type: biochemical; details: 37[…], one hour; HS-Cy5.5/GC-BHQ3 probe
T1 sequence (Q9Y251 158-543 limits assumed): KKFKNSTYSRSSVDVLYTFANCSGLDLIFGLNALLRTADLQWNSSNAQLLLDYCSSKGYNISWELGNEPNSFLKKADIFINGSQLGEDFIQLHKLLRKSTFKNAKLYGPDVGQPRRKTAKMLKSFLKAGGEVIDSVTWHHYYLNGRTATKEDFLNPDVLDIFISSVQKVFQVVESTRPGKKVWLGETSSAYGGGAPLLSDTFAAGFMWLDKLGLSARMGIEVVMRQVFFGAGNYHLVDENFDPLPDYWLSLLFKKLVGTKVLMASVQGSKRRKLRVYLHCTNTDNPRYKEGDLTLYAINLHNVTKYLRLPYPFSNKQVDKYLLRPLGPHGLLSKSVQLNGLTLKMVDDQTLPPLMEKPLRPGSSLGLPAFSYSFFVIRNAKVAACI
T1 sequence (Q9Y251 36-109 limits assumed): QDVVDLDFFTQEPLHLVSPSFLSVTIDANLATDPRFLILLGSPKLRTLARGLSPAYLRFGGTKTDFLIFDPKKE
Description: By using the ionic-complex nanoparticles of HS-Cy5.5/GC-BHQ3 prepared in the preparation example 1, heparanase activities with or without heparanase inhibitor treatment were imaged.
The ionic-complex nanoparticles of HS-Cy5.5/GC-BHQ3 prepared in the preparation example 1 were treacted with ‘heparanase’ and ‘heparanase+inhibitor’ at a temperature of 37 °C for one hour, and then fluorescence emission therefrom by an enzyme degradation reaction was observed. After lapse of one hour, the fluorescence of the nanoparticles was observed by using a Kodak Image Station 4000MM Digital Imaging System mounted with a charge coupled device (CCD) camera. […] From the result, it could be seen that the ionic-complex nanoparticles of HS-Cy5.5/GC-BHQ3 could image heparanase enzymes, and could be applied to a composition for screening drugs of heparanase inhibitors or effects of drugs.

[2] = target: T2, heparanase (Mus musculus, UniProt Q6YGZ1); assay: Imaging of heparanase expression in SCC7 cancer model; assay type: in vivo; details: 20 mg/kg heparin injected into cancer tissues 20 minutes before probe; SCC7 nude mice
T2 construct: It is known that the SCC7 cancer tissues express a large amount of heparanase; from tissue; host or cells: SCC7 tumour tissue in nude mice
T2 sequence (Q6YGZ1 150-535 limits assumed): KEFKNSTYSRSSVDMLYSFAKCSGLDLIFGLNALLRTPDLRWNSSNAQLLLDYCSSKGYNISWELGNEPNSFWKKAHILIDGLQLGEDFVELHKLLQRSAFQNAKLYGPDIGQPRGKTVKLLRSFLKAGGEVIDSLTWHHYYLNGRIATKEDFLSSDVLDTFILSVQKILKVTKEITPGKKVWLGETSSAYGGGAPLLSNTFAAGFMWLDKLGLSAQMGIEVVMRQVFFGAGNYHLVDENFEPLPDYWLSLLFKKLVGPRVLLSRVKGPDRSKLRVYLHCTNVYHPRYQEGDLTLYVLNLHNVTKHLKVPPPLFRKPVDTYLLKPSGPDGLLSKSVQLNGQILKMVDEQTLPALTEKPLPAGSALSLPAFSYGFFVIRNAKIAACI
T2 sequence (Q6YGZ1 28-101 limits assumed): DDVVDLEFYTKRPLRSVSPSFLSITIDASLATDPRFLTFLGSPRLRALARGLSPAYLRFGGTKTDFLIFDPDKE
Description: To establish a cancer model, 1×10^6 SCC7 cancer cells were implanted in nude mice. Here, the SCC7 are epithelial cancer cells, and commercially available from American Type Culture Collection (ATCC). Next, when the cancer has a size of about 5-8 mm, the ionic-complex nanoparticles of HS-Cy5.5/GC-BHQ3 were injected into veins of the mice tails. Then, heparanase expression was imaged by using an eXplore Optix image device.
It is known that the SCC7 cancer tissues express a large amount of heparanase. Accordingly, in order to test the ability of a heparanase inhibitor to inhibit heparanase, 20 mg/kg of heparin was injected into cancer tissues. After lapse of 20 minutes, the ionic-complex nanoparticles of HS-Cy5.5/GC-BHQ3 were injected into veins of the mice tails. Then, decrease of heparanase activities was imaged by using the explore Optix image device.

fluorescence intensity of nanoparticles when 'heparanase+inhibitor' were treated [1]: decreased
fluorescence intensity in cancer tissues of heparanase inhibitor-injected group [2]: decreased fluorescence intensity
Substance: heparin

Reference: patent publication US8323622B2, “Ionic complex nanoparticles for detecting heparanase activities and method for preparing the same” (Korea Institute of Science and Technology, priority 2009, dated 2012)
